One compound from US12258625B2, “Compositions and methods relating to nucleic acid interaction reporters” (Trustees of Boston University, priority 2022, dated 2025) can be followed below.

For the assay, the system named is miR-430 target site. Description: microRNA sensor (Ago2 fused to Adar catalytic subunit). The format is in vivo, zebrafish. How it is done: In this case, the writer comprises a protein fusion between a protein from the Argonaute family and the catalytic domain of the RNA-editing enzyme ADAR. The recorder must contain the target site of the microRNA of interest, usually the 6 to 8 nucleotides complementary to the miRNA seed region. In the presence of the writer, the recorder and the miRNA of interest, the ternary interaction is recorded as RNA editing in the recorder mRNA. The number of edits will be proportional to the strength of the microRNA-target site interaction. Other variants of this approach include expressing the Ago-Adar writer together with a library of recorders that containing all possible 8-nucleotide sequences as binding site. […]
FIG. 18 depicts a microRNA sensor. miR-430 is a small non-coding regulatory microRNA that recognize their targets mRNAs trough interaction and pairing. miR-430 binds to the effector protein Ago2 and together form a riboprotein complex that recognizes and binds to target mRNAs. miR-430 is the only microRNA expressed during early embryogenesis. […] Only with the tertiary interaction between Ago2, a microRNA, and the target is reconstituted, is editing detected.
Usage of the interactome recorder system to determine microRNA activity in vivo (FIG. 8A). […] In the presence of the writer, the recorder and the miRNA of interest, the ternary interaction is recorded as RNA editing in the recorder mRNA. […]

As for `CC[C@H](C)[C@@H]1NC(=O)CNC(=O)[C@@H]2Cc3c([nH]c4cc(O)ccc34)[S+]([O-])C[C@@H](NC(=O)CNC1=O)C(=O)N[C@@H](CC(N)=O)C(=O)N1C[C@H](O)C[C@H]1C(=O)N[C@@H]([C@@H](C)[C@@H](O)CO)C(=O)N2` (stereo partly drawn) [alpha-Amanitin], under “embryos injected with alpha-Amanitin”, the “editing of the recorder” value is reported as “not when endogenous miR-430 expression is inhibited”. Besides, the miR-430 expression entry (injection, early embryogenesis) is given as “prevents its expression”.
